Common to all, as to design: species or system Homo sapiens
Test [1] in a line: Effect towards transactivation responsive RNA-binding protein at pH 7.5, (10 mM Tris-HCl, 150 mM KCl)by using fluorimetric competition assay.
Test [2] can be described thus: Effect against transactivation responsive RNA-binding protein at pH 7.4 (50 mM Tris-HCl […]) in fluorimetric competition assay.
Test [3] can be described thus: Effect against trans-activation responsive RNA-binding protein at pH 7.4 (50 mM Tris-HCl and 20 mM KCl) in fluorimetric competition assay.

pIC50: −log10 of the molar value.

`NCC1OC(OC2C(N)CC(N)C(O)C2O)C(N)C(O)C1OCCCCCCNC(=O)CCC(=O)NCCCCCCOC1C(CN)OC(OC2C(N)CC(N)C(O)C2O)C(N)C1O` (configuration not stated): the results for the pIC50 in test [1] and in test [2] were 6.32 and 6.82, respectively.

Regarding `CN(CC(=O)NCCCCCCO[C@@H]1[C@H](O)[C@H](N)C[C@@H](N)[C@H]1O[C@H]1O[C@@H](CN)[C@@H](O)[C@H](O)[C@@H]1N)CC(=O)NCCCCCCO[C@@H]1[C@H](O)[C@H](N)C[C@@H](N)[C@H]1O[C@H]1O[C@@H](CN)[C@@H](O)[C@H](O)[C@@H]1N`, the pIC50 is 6.00 in test [1] and 6.82 in test [2].

For `NCC1OC(OC2C(N)CC(N)C(O)C2OCCCCCCNC(=O)CCC(=O)NCCCCCCOC2C(O)C(N)CC(N)C2OC2OC(CN)C(O)C(O)C2N)C(N)C(O)C1O` (configuration not stated), the pIC50 in test [1] was 6.05; in test [2], 6.40.

Turning to `NC[C@H]1O[C@H](O[C@H]2[C@H](O)[C@@H](O)[C@H](N)C[C@@H]2N)[C@H](N)[C@@H](O)[C@@H]1O` [NEAMINE], the pIC50 in test [1] is 4.40; in test [3], 5.00.

As for `CN(CC(=O)NCCCCCCO[C@H]1[C@H](O)[C@H](N)[C@@H](O[C@H]2[C@H](O)[C@H](O)[C@H](N)C[C@H]2N)O[C@H]1CN)CC(=O)NCCCCCCO[C@H]1[C@H](O)[C@H](N)[C@@H](O[C@H]2[C@H](O)[C@H](O)[C@H](N)C[C@H]2N)O[C@H]1CN`, the pIC50 in test [1] is 7.30; in test [2], 6.48.

Regarding `NC[C@@H]1O[C@H](O[C@H]2[C@@H](O)[C@H](O[C@@H]3[C@@H](O)[C@H](N)C[C@H](N)[C@H]3O[C@H]3O[C@H](CN)[C@@H](O)[C@H](O)[C@H]3N)O[C@@H]2CO)[C@H](N)[C@@H](O)[C@@H]1O` [FRAMYCETIN], the pIC50 is 4.46 in test [1] and 5.15 in test [2].

These data come from ChEMBL document CHEMBL1140393, “Neamine dimers targeting the HIV-1 TAR RNA” (Bioorg Med Chem Lett, 2005).
